Measured values taken from patent US8765941B2 (Kino Pharma, Inc., priority 2008, dated 2014).
Where two headings read alike, the source gives them in different places.

Assays:
LuHCV cells = test: Evaluation of cell growth suppression using LuHCV cells (percentage of viable cells, reagent SF); format: cell-based, human; conditions: 48 hours, DMSO = 100%
Experimental: At this time, as a background absorbance, measurement was also performed for wells containing test compounds (or DMSO used as a control), but containing no cells. Each of the thus obtained background numerical values was deducted from the absorbance of a cell-containing well (measured for the same compound at the same concentration). The resulting value was designated as actual measurement of number of viable cells containing no background. […] With an average value measured for DMSO used as a control test substance designated as 100%, the percentage of the number of viable cells for each test compound was calculated.
At this time, as a background absorbance, measurement was also performed for wells containing test compounds (or containing DMSO used as a control), but containing no cells. Each of the thus obtained background numerical values was deducted from the absorbance of a cell-containing well (measured for the same compound at the same concentration). The resulting value was designated as actual measurement of number of viable cells containing no background. […] By using a value measured upon addition of DMSO used as a control test substance designated as 100%, the percentage of the number of viable cells for each test compound was calculated. Table 1-2 and FIG. 2B show the percentage of the number of viable cells (cell viability (% control)) for each test compound at each concentration.

[1] = tested on: intracellular HCV protein (NS3-NS4-NS5A-NS5B); test: HCV viral protein expression assay using LuHCV cells (luciferase activity); conditions: for activity at 10 µM / activity at 20 µM: Hepatitis C virus, 48 h, read-out: luc activity (% control); for luciferase activity (result in words): 0, 10 and 20 μM
Experimental: As an HCV viral protein expression assay, screening was performed for compounds having anti-HCV activity using human hepatocytes with which the replication and expression of the intracellular HCV protein (NS3-NS4-NS5A-NS5B) can be evaluated through determination of luciferase activity (hereinafter, referred to as LuHCV).
LuHCV cells were plated onto 96-well plates at 5×10^3 cells/50 μL/well and then incubated overnight. Test compounds were each dissolved in dimethyl sulfoxide (DMSO) and dilution series were prepared using DMSO, if necessary. On the next day of plating of LuHCV cells, a medium containing a test compound with a concentration twice the final test concentration was added at 50 μL/well. Cells were gently cultured under culture conditions of 48 hours, 37° C., and 5% CO2 (the final concentrations of the test compounds: 0, 10, and 20 μM). At this time, analysis was made using 3 test wells for each test compound and for each concentration.
Culture medium was removed after 48 hours. Glo lysis buffer (100 μL) (Promega) was added to each well and then cells were disrupted, so that a cell extract was obtained. With the use of 50 μL of the thus obtained cell extract, 50 μL of a Bright-Glo™ Luciferase Assay System (Promega) reagent was added. Luciferase activity in the extract was determined by measuring luminescence intensity for one second using a measuring device ARVO (PerkinElmer Co., Ltd.).
Based on the thus obtained numerical values of luminescence intensity, an average value for each test compound at each concentration was calculated. The luminescence intensity percentage for each test compound was calculated based on a luminescence intensity for DMSO (used as a control for test substances) as 100%.
Culture medium was removed after 48 hours. Glo Lysis buffer (100 μL) (Promega) was added to each well and then cells were disrupted, so that a cell extract was obtained. With the use of 50 μL of the thus obtained cell extract, 50 μL of a Bright-Glo™ Luciferase Assay System (Promega) reagent was added. Luciferase activity in the extract was determined by measuring luminescence intensity for one second using a measuring device ARVO (PerkinElmer Co., Ltd.).
Based on the thus obtained numerical values of luminescence intensity, an average value for each test compound at each concentration was calculated. The luminescence intensity percentage for each test compound was calculated based on a luminescence intensity of DMSO (used as a control for test substances) as 100%.

influenza virus = conditions: for cell death due to influenza virus infection (result in words): 5 and 10 μM, 48 hours, MDCK cells

| SMILES | viability (% control) (LuHCV cells; 10 μM) | viability (% control) (LuHCV cells; 20 μM) | activity at 10 µM [1] [%] | activity at 20 µM [1] [%] | luciferase activity (result in words) ([1]; 48 hours, LuHCV cells) | viability (% control) (influenza virus; 5 µM) | viability (% control) (influenza virus; 10 µM) | cell death due to influenza virus infection (result in words) (influenza virus) | decrease in luminescence intensity compared with the control ([1]; 10 μM, 48 hours, LuHCV cells) |
| --- | --- | --- | --- | --- | --- | --- | --- | --- | --- |
| O=C(NC(=S)Nc1cc(C(F)(F)F)ccc1N1CCCCCCC1)c1ccc(F)cc1 [Compound 13, N-(4-fluorobenzoyl)-N′-[2-(azacyclooctan-1-yl)-5-(trifluoromethyl)phenyl]thiourea] | 101.56 | 104.05 | 34.1 | 28.5 |  |  |  |  |  |
| O=C(NC(=S)Nc1cc(C(F)(F)F)ccc1N1CCCCCCCC1)c1ccccc1 [Compound 24, 1-benzoyl-3-[2-(azacyclononan-1-yl)-5-(trifluoro-methyl)phenyl]thiourea] | 108.20 | 110.15 | 56.4 | 39.4 |  |  |  |  |  |
| FC(F)(F)c1ccc(N2CCC[C@H]3CCCC[C@@H]32)c(NC(=S)c2ccncc2)c1 (relative stereo) [Compound 21, N-[2-(trans-2-azabicyclo[4.4.0]-decan-2-yl)-5-(trifluoromethyl)phenyl]isonicotinthioamide] | 94.44 | 93.56 | 56.8 | 34 |  |  |  |  |  |
| O=C(NC(=S)Nc1cc(C(F)(F)F)ccc1N1CCCCCCC1)c1ccncc1 [Compound 7, N-isonicotinoyl-N′-[2-(azacyclooctan-1-yl)-5-(trifluoromethyl)phenyl]thiourea] | 76.97 | 71.85 | 30.7 | 16.4 |  |  |  |  |  |
| O=C(NC(=S)Nc1cc(C(F)(F)F)ccc1F)c1cccnc1 [Compound 16, N-nicotinoyl-N′-[2-fluoro-5-(trifluoro-methyl)phenyl]thiourea] | 85.21 | 79.86 | 58.1 | 48.9 |  |  |  |  |  |
| O=C(NC(=S)Nc1cc(C(F)(F)F)ccc1N1CC[C@H]2CCCC[C@@H]2C1)c1ccccc1 (relative stereo) [Compound 23, 1-benzoyl-3-[2-(trans-3-azabicyclo[4.4.0]decan-3-yl)-5-(trifluoromethyl)phenyl]thiourea] | 106.72 | 104.93 | 64 | 49.4 |  |  |  |  |  |
| O=C(Nc1cc(C(F)(F)F)ccc1N1CCC[C@H]2CCCC[C@@H]21)c1ccncc1 (relative stereo) [Compound 19, N-[2-(trans-2-azabicyclo[4.4.0]decan-2-yl)-5-(trifluoromethyl)phenyl]isonicotinamide] | 99.02 | 91.02 | 51 | 33.5 |  |  |  |  |  |
| COc1ccccc1C(=O)NC(=S)Nc1cc(C(F)(F)F)ccc1N1CCCCCCC1 [Compound 15, N-(2-methoxybenzoyl)-N′-[2-(azacyclooctan-1-yl)-5-(trifluoromethyl)phenyl]thiourea] | 107.86 | 107.33 | 45.8 | 37.6 |  |  |  |  |  |
| Cc1ccc(C(=O)NC(=S)Nc2cc(C(F)(F)F)ccc2N2CCCCCCC2)cc1 [Compound 11] | 89.95 | 89.20 | 35.8 | 29.8 |  |  |  |  |  |
| FC(F)(F)c1ccc(N2CCCCC2)c(NC(=S)c2ccncc2)c1 [Compound 2, N-[2-(1-piperidinyl)-5-(trifluoromethyl)phenyl]isonicotinthioamide] |  |  |  |  | Decreases in luciferase activity |  |  |  |  |
| O=C(NC(=S)Nc1cc(F)ccc1N1CCCCCCC1)c1cccnc1 [Compound 9] | 82.79 | 73.39 | 33.6 | 26 |  |  |  |  |  |
| O=C(NC(=S)Nc1cc(C(F)(F)F)ccc1N1CCCCC1)c1cccnc1 [Compound 3, 1-nicotinoyl-3-[2-(1-piperidinyl)-5-(trifluoromethyl)phenyl]thiourea] | 103.79 | 93.82 | 69.3 | 43.2 |  |  |  |  |  |
| COc1ccc(C(=O)NC(=S)Nc2cc(C(F)(F)F)ccc2N2CCCCCCC2)cc1 [Compound 12, N-(4-methoxybenzoyl)-N′-[2-(azacyclooctan-1-yl)-5-(trifluoromethyl)phenyl]thiourea] | 94.69 | 88.78 | 32.8 | 28.6 |  |  |  |  |  |
| FC(F)(F)c1ccc(N2CC[C@H]3CCCC[C@@H]3C2)c(NC(=S)c2ccncc2)c1 (relative stereo) [Compound 22, N-[2-(trans-3-azabicyclo[4.4.0]decan-3-yl)-5-(trifluoromethyl)phenyl]isonicotinthioamide] | 104.65 | 96.39 | 42.6 | 21.9 |  |  |  |  |  |
| O=C(Nc1cc(C(F)(F)F)ccc1N1CCCCCCCC1)c1ccncc1 [Compound 20, W[2-(azacyclononan-1-yl)-5-(trifluoromethyl)-phenyl]isonicotinamide] | 111.50 | 105.35 | 48.3 | 22.7 |  |  |  |  |  |
| O=C(NC(=S)Nc1cc(C(F)(F)F)ccc1N1CCCCCCC1)c1ccoc1 [Compound 17] | 112.89 | 108.81 | 26.1 | 17.6 |  |  |  |  |  |
| O=C(NC(=O)c1cccnc1)Nc1cc(C(F)(F)F)ccc1N1CCCCCCC1 [Compound 8, N-nicotinoyl-N′-[2-(azacyclooctan-1-yl)-5-(trifluoro-methyl)phenyl]urea] | 77.35 | 77.81 | 55.7 | 58 |  |  |  |  |  |
| O=C(NC(=S)Nc1cc(C(F)(F)F)ccc1N1CCCCCCC1)c1ccccc1 [Compound 14, N-benzoyl-N′-[2-(azacyclooctan-1-yl)-5-(trifluoromethyl)phenyl]thiourea] | 103.81 | 103.76 | 30.3 | 14.8 |  | 71.6 ± 2.2 | 100.0 ± 2.0 | cell death was decreased |  |
| O=C(NC(=S)Nc1cc(C(F)(F)F)ccc1N1CCCCCCCC1)c1cccnc1 [Compound 6, N-nicotinoyl-N′-[2-(azacyclononan-1-yl)-5-(trifluoromethyl)phenyl]thiourea] |  |  |  |  | Decreases in luciferase activity | 42.1 ± 1.5 | 80.9 ± 3.2 | cell death was decreased | about 50% |
| Cc1ccc(C(=O)NC(=S)Nc2cc(C(F)(F)F)ccc2N2CCCCCCC2)cn1 [Compound 10, N-(6-methylnicotinoyl)-N′-[2-(azacyclo-octan-1-yl)-5-(trifluoro-methyl)phenyl]thiourea] | 96.19 | 89.38 | 41.2 | 26.9 |  |  |  |  |  |
| O=C(NC(=S)Nc1cc(C(F)(F)F)ccc1N1CCCCCC1)c1cccnc1 [Compound 4, N-nicotinoyl-N′[2-(azacycloheptan-1-yl)-5-(trifluoromethyl)phenyl]thiourea] | 93.86 | 89.76 | 65.8 | 44.5 |  |  |  |  |  |
